The nature of this data set: Pharmacokinetic study in dogs after oral dosing of tablets with SNAC. The data set is classed as in vivo, Beagle dogs. How it is done: The purpose of this example is to determine the half-life and plasma exposure in vivo of the compounds of the present invention after p.o. administration to beagle dogs, i.e. the terminal half-life and concentration of test substance that reaches circulation with time. This is done in a pharmacokinetic (PK) study, where these parameters of the compound in question are determined. By terminal half-life is generally meant the period of time it takes to halve a certain plasma concentration, measured after the initial distribution phase.
The amount of SNAC in the tablet composition was 100-300 mg, the amount of magnesium stearate in the tablet composition was 7.7 mg, and the target amount of each test substance in the tablet composition was 3-4 mg.
Male beagle dogs, 1-7 years of age and weighing 9-17 kg during the study period, were included in the study. The dogs were dosed in a fasting state. The dogs were group housed in pens (12 hours light: 12 hours dark), and fed individually and restrictedly once daily with Royal Canin Medium Adult dog food (Royal Canin Products, China Branch, or Brogaarden A/S, Denmark). The dogs were used for repeated PK studies with a suitable wash-out period between successive dosing. An appropriate acclimatization period was given prior to initiation of the first PK study. All handling, dosing, and blood sampling of the animals were performed by trained and skilled staff. Before the studies, the dogs were fasted overnight and from 0 to 4 hours after dosing. The dogs were restricted to water 1 hour before dosing until 4 hours after dosing, but otherwise had ad libitum access to water during the whole period.
The compositions were administered by a single oral dosing to the dogs in groups of 6-8 dogs. […] The mouth was then closed, and 10 mL of tap water was given by syringe or gavage to facilitate swallowing of the tablet.
For each blood sample time point, approximately 0.8 mL of whole blood was collected in a 1.5 mL EDTA-coated tube, which was gently turned to mix the sample with EDTA. Blood samples were collected in EDTA buffer (8 mM) and then centrifuged at 4° C. and 2000g for 10 minutes. Plasma was pipetted into Micronic tubes on dry ice, and kept at −20° C. or lower until analysis. Blood samples were taken as appropriate, for example from a venflon in the cephalic vein in the front leg for the first 2 hours and then with syringe from the jugular vein for the rest of the time points. The first few drops were allowed to drain from the venflon to avoid heparin saline from the venflon in the sample.
All blood samples were collected into test tubes containing EDTA for stabilisation and kept on ice until centrifugation. Plasma was separated from whole blood by centrifugation and the plasma was stored at −20° C. or lower until analysis.
The plasma was analysed for test substance using LC-MS (Liquid Chromatography-Mass Spectrometry) as known to the person skilled in the art. […] RP-HPLC separation was achieved using a linear gradient of 1:1 acetonitrile/methanol in 1% aqueous formic acid using either: a Phenomenex Onyx Monolithic C18 column (50×2.0 mm) and a flow rate of 0.8 mL/min at 30° C.; or an Agilent Poroshell 120 SB-C18 column (50×2.1 mm, 2.7 μm) at a flow rate of 0.4 mL/min at 60° C. The mass spectrometer was operated in either positive ionization SIM mode or positive ionization PRM mode.
For each individual animal, a plasma concentration-time profile was analysed by a non-compartmental model in Pharsight Phoenix WinNonLin ver. 6.4 software or other relevant software for PK analysis, and the resulting terminal half-life (t1/2), maximum plasma concentration per dose (Cmax/D), time for maximum plasma concentration (tmax), and area under the curve to infinity per dose (AUC/D) were determined. Summary statistics of pharmacokinetic results were presented as median (for tmax), harmonic mean ([…]), or arithmetic mean (Cmax, AUC).

Starred links: 1 amine or outer side, 2 acyl side, 3 side chain; linkers in the order of their positions; H or OH if unused. Non-standard residues stand in square brackets, D forms with d. Residues, ends and D or L forms follow the SMILES beside them. Groups on a side chain read outwards from the residue. *: point of attachment. C20 diacid = O=C(O)CCCCCCCCCCCCCCCCCCC(=O)*; C18 diacid = O=C(O)CCCCCCCCCCCCCCCCC(=O)*; γGlu = O=C(O)[C@H](CCC(=O)[*:2])N[*:1]; εLys = N[C@@H](CCCCN[*:1])C(=O)[*:2]; Aib = CC(C)(N)C(=O)O

Take `CC[C@H](C)[C@H](NC(=O)[C@H](Cc1ccccc1)NC(=O)[C@H](CCC(=O)O)NC(=O)[C@H](CCCNC(=N)N)NC(=O)[C@H](C)NC(=O)[C@H](C)NC(=O)[C@H](CCC(N)=O)NC(=O)[C@H](CCCCNC(=O)[C@@H](N)CCCCNC(=O)[C@@H](N)CCCCNC(=O)CC[C@H](NC(=O)CCCCCCCCCCCCCCCCC(=O)O)C(=O)O)NC(=O)[C@H](CCC(=O)O)NC(=O)[C@H](CC(C)C)NC(=O)[C@H](Cc1ccc(O)cc1)NC(=O)[C@@H](NC(=O)[C@H](CO)NC(=O)[C@H](Cc1ccc(O)cc1)NC(=O)[C@H](CC(=O)O)NC(=O)[C@H](CO)NC(=O)[C@@H](NC(=O)[C@H](Cc1ccccc1)NC(=O)[C@@H](NC(=O)CNC(=O)[C@H](CCC(=O)O)NC(=O)C(C)(C)NC(=O)[C@@H](N)Cc1ccc(O)cc1)[C@@H](C)O)[C@@H](C)O)[C@@H](C)CC)C(=O)N[C@@H](CC(N)=O)C(=O)N[C@@H](Cc1c[nH]c2ccccc12)C(=O)N[C@@H](CC(C)C)C(=O)N[C@@H](CC(C)C)C(=O)N[C@@H](C)C(=O)NCC(=O)NCC(=O)N1CCC[C@H]1C(=O)N[C@@H](CO)C(=O)N[C@@H](CO)C(=O)NCC(=O)N[C@@H](C)C(=O)N1CCC[C@H]1C(=O)N1CCC[C@H]1C(=O)N1CCC[C@H]1C(=O)N[C@@H](CO)C(=O)O` [Compound No. 11] (H-Y[Aib]EGTFTSDYSIYLEK([εLys-εLys-γGlu-C18 diacid])QAAREFINWLLAGGPSSGAPPPS-OH): where the note is “dog, in vivo, po”, the AUC/Dose was found to be 7.1 kg·h/L and the Cmax/Dose stood at 0.19 kg/L.
For `CC[C@H](C)[C@H](NC(=O)[C@H](Cc1ccccc1)NC(=O)[C@H](CCC(=O)O)NC(=O)[C@H](CCCNC(=N)N)NC(=O)[C@H](C)NC(=O)[C@H](C)NC(=O)[C@H](CCC(N)=O)NC(=O)[C@H](CCCCNC(=O)[C@@H](N)CCCCNC(=O)[C@@H](N)CCCCNC(=O)CC[C@H](NC(=O)CCCCCCCCCCCCCCCCC(=O)O)C(=O)O)NC(=O)[C@H](CCC(=O)O)NC(=O)[C@H](CC(C)C)NC(=O)[C@H](Cc1ccc(O)cc1)NC(=O)[C@@H](NC(=O)[C@H](CO)NC(=O)[C@H](Cc1ccc(O)cc1)NC(=O)[C@H](CC(=O)O)NC(=O)[C@H](CO)NC(=O)[C@@H](NC(=O)[C@H](Cc1ccccc1)NC(=O)[C@@H](NC(=O)CNC(=O)[C@H](CCC(=O)O)NC(=O)C(C)(C)NC(=O)[C@@H](N)Cc1ccc(O)cc1)[C@@H](C)O)[C@@H](C)O)[C@@H](C)CC)C(=O)N[C@@H](CCC(=O)O)C(=O)N[C@@H](Cc1c[nH]c2ccccc12)C(=O)N[C@@H](CC(C)C)C(=O)N[C@@H](CC(C)C)C(=O)N[C@@H](CCCNC(=N)N)C(=O)NCC(=O)NCC(=O)N1CCC[C@H]1C(=O)N[C@@H](CCC(=O)O)C(=O)N[C@@H](CO)C(=O)NCC(=O)N[C@@H](C)C(=O)N1CCC[C@H]1C(=O)N1CCC[C@H]1C(=O)N1CCC[C@H]1C(=O)N[C@@H](CO)C(=O)O` [Compound No. 13] (H-Y[Aib]EGTFTSDYSIYLEK([εLys-εLys-γGlu-C18 diacid])QAAREFIEWLLRGGPESGAPPPS-OH), the Cmax/Dose (oral tablet, 100 mg SNAC, 3 mg test substance, Beagle dogs, arithmetic mean) was 0.29 kg/L.
For the setting “dog, in vivo, po”, `CC[C@H](C)[C@H](NC(=O)[C@H](Cc1ccccc1)NC(=O)[C@H](CCC(=O)O)NC(=O)[C@H](CCCNC(=N)N)NC(=O)[C@H](C)NC(=O)[C@H](C)NC(=O)[C@H](CCC(N)=O)NC(=O)[C@H](CCCCNC(=O)[C@@H](N)CCCCNC(=O)[C@@H](N)CCCCNC(=O)CC[C@H](NC(=O)CCCCCCCCCCCCCCCCCCC(=O)O)C(=O)O)NC(=O)[C@H](CCC(=O)O)NC(=O)[C@H](CC(C)C)NC(=O)[C@H](Cc1ccc(O)cc1)NC(=O)[C@@H](NC(=O)[C@H](CO)NC(=O)[C@H](Cc1ccc(O)cc1)NC(=O)[C@H](CC(=O)O)NC(=O)[C@H](CO)NC(=O)[C@@H](NC(=O)[C@H](Cc1ccccc1)NC(=O)[C@@H](NC(=O)CNC(=O)[C@H](CCC(=O)O)NC(=O)C(C)(C)NC(=O)[C@@H](N)Cc1ccc(O)cc1)[C@@H](C)O)[C@@H](C)O)[C@@H](C)CC)C(=O)N[C@@H](CC(N)=O)C(=O)N[C@@H](Cc1c[nH]c2ccccc12)C(=O)N[C@@H](CC(C)C)C(=O)N[C@@H](CC(C)C)C(=O)N[C@@H](C)C(=O)NCC(=O)NCC(=O)N1CCC[C@H]1C(=O)N[C@@H](CO)C(=O)N[C@@H](CO)C(=O)NCC(=O)N[C@@H](C)C(=O)N1CCC[C@H]1C(=O)N1CCC[C@H]1C(=O)N1CCC[C@H]1C(=O)N[C@@H](CO)C(=O)O` [Compound No. 16] (H-Y[Aib]EGTFTSDYSIYLEK([εLys-εLys-γGlu-C20 diacid])QAAREFINWLLAGGPSSGAPPPS-OH) gave an AUC/Dose of 8.6 kg·h/L and a Cmax/Dose of 0.21 kg/L.
`CC[C@H](C)[C@H](NC(=O)[C@H](Cc1ccccc1)NC(=O)[C@H](CCC(=O)O)NC(=O)[C@H](CCCNC(=N)N)NC(=O)[C@H](C)NC(=O)[C@H](C)NC(=O)[C@H](CCC(N)=O)NC(=O)[C@H](CCCCNC(=O)[C@@H](N)CCCCNC(=O)[C@@H](N)CCCCNC(=O)CC[C@H](NC(=O)CCCCCCCCCCCCCCCCC(=O)O)C(=O)O)NC(=O)[C@H](CCC(=O)O)NC(=O)[C@H](CC(C)C)NC(=O)[C@H](CC(C)C)NC(=O)[C@@H](NC(=O)[C@H](CO)NC(=O)[C@H](Cc1ccc(O)cc1)NC(=O)[C@H](CC(=O)O)NC(=O)[C@H](CO)NC(=O)[C@@H](NC(=O)[C@H](Cc1ccccc1)NC(=O)[C@@H](NC(=O)CNC(=O)[C@H](CCC(=O)O)NC(=O)C(C)(C)NC(=O)[C@@H](N)Cc1ccc(O)cc1)[C@@H](C)O)[C@@H](C)O)[C@@H](C)CC)C(=O)N[C@@H](CC(N)=O)C(=O)N[C@@H](Cc1c[nH]c2ccccc12)C(=O)N[C@@H](CC(C)C)C(=O)N[C@@H](CC(C)C)C(=O)N[C@@H](C)C(=O)NCC(=O)NCC(=O)N1CCC[C@H]1C(=O)N[C@@H](CO)C(=O)N[C@@H](CO)C(=O)O` [Compound No. 20] (H-Y[Aib]EGTFTSDYSILLEK([εLys-εLys-γGlu-C18 diacid])QAAREFINWLLAGGPSS-OH) registered a Cmax/Dose (dog, in vivo, po) of 0.21 kg/L.
Where the note is “dog, in vivo, po”, `CC[C@H](C)[C@H](NC(=O)[C@H](Cc1ccccc1)NC(=O)[C@H](CCC(=O)O)NC(=O)[C@H](CCC(N)=O)NC(=O)[C@H](C)NC(=O)[C@H](C)NC(=O)[C@H](CCC(N)=O)NC(=O)[C@H](CCCCNC(=O)[C@@H](N)CCCCNC(=O)[C@@H](N)CCCCNC(=O)CC[C@H](NC(=O)CCCCCCCCCCCCCCCCC(=O)O)C(=O)O)NC(=O)[C@H](CCC(=O)O)NC(=O)[C@H](CC(C)C)NC(=O)[C@H](CC(C)C)NC(=O)[C@@H](NC(=O)[C@H](CO)NC(=O)[C@H](Cc1ccc(O)cc1)NC(=O)[C@H](CC(=O)O)NC(=O)[C@H](CO)NC(=O)[C@@H](NC(=O)[C@H](Cc1ccccc1)NC(=O)[C@@H](NC(=O)CNC(=O)[C@H](CCC(=O)O)NC(=O)C(C)(C)NC(=O)[C@@H](N)Cc1ccc(O)cc1)[C@@H](C)O)[C@@H](C)O)[C@@H](C)CC)C(=O)N[C@@H](CC(N)=O)C(=O)N[C@@H](Cc1c[nH]c2ccccc12)C(=O)N[C@@H](CC(C)C)C(=O)N[C@@H](CC(C)C)C(=O)N[C@@H](C)C(=O)NCC(=O)NCC(=O)N1CCC[C@H]1C(=O)N[C@@H](CO)C(=O)N[C@@H](CO)C(=O)NCC(=O)N[C@@H](C)C(=O)N1CCC[C@H]1C(=O)N1CCC[C@H]1C(=O)N1CCC[C@H]1C(=O)N[C@@H](CO)C(=O)O` [Compound No. 24] (H-Y[Aib]EGTFTSDYSILLEK([εLys-εLys-γGlu-C18 diacid])QAAQEFINWLLAGGPSSGAPPPS-OH) showed a Cmax/Dose of 0.29 kg/L.

Source of the values: patent publication US20230272029A1, “CO-AGONISTS AT GLP-1 AND GIP RECEPTORS SUITABLE FOR ORAL DELIVERY” (Novo Nordisk A/S, priority 2020, published 2023).
